Results published in PMC7614683, “A small molecule PI3Kα activator for cardioprotection and neuroregeneration” (Nature, 2023).

What was measured:
human p110α/p85α (PI3Kα) = molecular target: T1, human p110α/p85α (PI3Kα) (Homo sapiens, UniProt P42336); test: ADP-Glo in vitro lipid kinase assay, PI3Kα; type: biochemical; details: for Maximum activity relative to 1938 / Maximum activity relative to pY control: SI Table 3; for EC50: SI Table 3, 1938 analogues, read-out: EC50; for reduction in activity: relative to 1938
T1 construct: Full-length human p110α was expressed either in a complex with full-length human p85α (for HTS, biochemistry and HDX-MS); 6xHis tag followed by TEV protease site (N); host or cells: Spodoptera frugiperda Sf9, baculovirus
Description: Kinase reactions were performed with ADP-Glo kinase assay kit (Promega Corporation). The enzyme, substrate and compounds were diluted in reaction buffer (20 mM HEPES, 50 mM NaCl, 50 mM KCl, 3 mM MgCl2, 1 mM EGTA, 1 mM TCEP, pH 7.4). Final concentrations of PI3Kα and PI3Kδ used were 25 nM and 50 nM for PI3Kβ. Liposomes (5% brain PI(4,5)P2, 20% brain phosphatidylserine, 45% brain phosphatidylethanolamine, 15% brain phosphatidylcholine, 10% cholesterol, 5% sphingomyelin (Avanti Polar Lipids)) were used at a final concentration of 1 mg/ml.
For the HTS, the reaction mixture contained 0.75 μl enzyme, 15 nl compound and/or pY and 0.75 μl of liposome substrate mixed with ATP. […] (GL Biochem, Shanghai Ltd). ATP was used at a final concentration of 500 μM unless otherwise stated. The final DMSO concentration in the assay was 1%. The experiments were performed at room temperature for 3 h using 1536-well white-polystyrene plates (Corning #3729) before addition of 2 μl of ADP-Glo R1 to terminate the reaction. The plate was incubated for 40 min, followed by addition of 4 μl of ADP-Glo R2 and incubated further for 60 min in the dark. Luminescence was read using an EnVision (PerkinElmer) plate reader. All analyses were performed using Genedata Screener.
For re-screening of HTS hits and routine compound profiling, the reaction mixture contained 2 μl PI3K enzyme, 2 μl compound and/or pY and 2 μl of liposome substrate mixed with ATP. ATP was used at a final concentration of 500 μM for PI3Kα and PI3Kβ and at 200 μM for PI3Kδ, unless otherwise stated. The final DMSO concentration in the assay was 1%. The experiments were performed at room temperature for 3 h using 384 white-polystyrene plates (Corning #3824) before addition of 6 μl of ADP-Glo R1 to terminate the reaction. The plate was incubated for 45 min, followed by addition of 12 μl of ADP-Glo R2 and incubated further for 60 min in the dark. Luminescence was read using a Sense (Hidex) plate reader. […] All analyses were performed using GraphPad Prism 7.
For characterisation of the effects of 1938 on in vitro PI3K enzymology, all reactions were performed at room temperature with 384 white-polystyrene plates (Corning #3574). The final DMSO concentration in the assay was between 0.5%-1.8%. The reaction mixture contained 2 μl PI3K enzyme, 2 μl compound and/or pY and 2 μl of liposome substrate mixed with ATP. ATP was used at a final concentration of 200 μM, unless otherwise stated.

PI3Kα-KO MEFs = test: pAKT S473 western blot, PI3Kα-KO MEFs; type: cell-based, mouse; details: TGX-221 0.2 μM
Description: Unless otherwise indicated, western blotting was performed with ECL detection. For time course studies, A549 cells were seeded at 250,000 cells per well in 6-well plates in RPMI (10% FBS + 1 mM Na-Pyruvate + 1% P/S) and allowed to adhere overnight. The next day they were serum-starved for 4 h prior to treatment with 100 nM insulin or 5 μM 1938, for the indicated time (5 min to 48 h) at 37°C, 5% CO2. For 1938 titration assays in MEFs, cells were seeded at 150,000 cells per well in 6-well plates and allowed to adhere overnight. The next day they were serum-starved for 4 h prior to treatment with insulin (1 μM), 1938 (0.2 to 30 μM, final DMSO concentration of 1.5%) or inhibitors (final DMSO concentration of ≤1.5%) for 15 min at 37°C, 5% CO2. Cells were washed twice with cold PBS and lysed using cold RIPA buffer (25 mM Tris.HCl pH 7.6, 150 mM NaCl, 1% NP-40, 1% sodium deoxycholate, 0.1% SDS supplemented with protease/phosphatase inhibitor cocktail from Merck). To remove cell debris, homogenates were spun at 13,000 rpm for 15 min at 4°C and the supernatant fraction recovered. Protein concentration was determined by colorimetric assay (BCA assay, Promega). Protein extracts were resolved by SDS-PAGE, transferred to nitrocellulose membranes, and incubated overnight at 4°C with specific antibodies as follows: anti-vinculin (Sigma #V9131) and the following antibodies from Cell Signaling Technology (CST): pAKT-S473 (CST #9271), pS6-S240/244 (CST #2215), pPRAS40-T246 (CST #2640) and total S6 (CST #2317). Primary ntibodies were used at 1:1000 dilution except anti-vinculin (1:10000). Secondary antibodies are also from Cell Signalling Technology: Anti rabbit IgG, HRP linked Antibody (CST #7074S), Anti mouse IgG, HRP linked Antibody (CST #7076S). Raw and uncropped blots are shown in Supplementary Fig. 1.

MEFs = test: Phosphoinositide quantification by mass spectrometry, MEFs; type: cell-based, mouse; details: 1938 at 5 μM, PDGF 20 ng/ml 2 min
Description: (§1) A549 cells (5.10^5) or wild-type MEFs (3.10^5) were plated in complete media onto 3.5 cm dishes or 60 mm dishes respectively for 24 h, prior to FCS-free starvation media for 16 h. MEFs, in addition, were supplemented with arachidonic acid in the FCS-free starvation media as previously described. […] Reactions were terminated in 600 μl ice-cold 1 M HCl and cells scraped and resuspended, then divided into two equal samples in eppendorfs. […] The data are shown as response ratios, calculated by normalizing the multiple reaction monitoring (MRM)-targeted lipid integrated response area to that of a known amount of relevant internal standard. To account for any cell input variability, PIP3 response ratios were normalized to C38:4-PI response ratios; while PI(3,4)P2 response ratios were normalised to PI(4,5)P2 response ratios. Data shown are mean ±SD for n ≥3, except for non-DMSO control in MEF PIP3 measurements where n=1.

A549 cells = test: Phosphoinositide quantification by mass spectrometry, A549; type: cell-based, human; details: A549, 2 min
Description: as §1

T1 sequence (P42336 whole entry): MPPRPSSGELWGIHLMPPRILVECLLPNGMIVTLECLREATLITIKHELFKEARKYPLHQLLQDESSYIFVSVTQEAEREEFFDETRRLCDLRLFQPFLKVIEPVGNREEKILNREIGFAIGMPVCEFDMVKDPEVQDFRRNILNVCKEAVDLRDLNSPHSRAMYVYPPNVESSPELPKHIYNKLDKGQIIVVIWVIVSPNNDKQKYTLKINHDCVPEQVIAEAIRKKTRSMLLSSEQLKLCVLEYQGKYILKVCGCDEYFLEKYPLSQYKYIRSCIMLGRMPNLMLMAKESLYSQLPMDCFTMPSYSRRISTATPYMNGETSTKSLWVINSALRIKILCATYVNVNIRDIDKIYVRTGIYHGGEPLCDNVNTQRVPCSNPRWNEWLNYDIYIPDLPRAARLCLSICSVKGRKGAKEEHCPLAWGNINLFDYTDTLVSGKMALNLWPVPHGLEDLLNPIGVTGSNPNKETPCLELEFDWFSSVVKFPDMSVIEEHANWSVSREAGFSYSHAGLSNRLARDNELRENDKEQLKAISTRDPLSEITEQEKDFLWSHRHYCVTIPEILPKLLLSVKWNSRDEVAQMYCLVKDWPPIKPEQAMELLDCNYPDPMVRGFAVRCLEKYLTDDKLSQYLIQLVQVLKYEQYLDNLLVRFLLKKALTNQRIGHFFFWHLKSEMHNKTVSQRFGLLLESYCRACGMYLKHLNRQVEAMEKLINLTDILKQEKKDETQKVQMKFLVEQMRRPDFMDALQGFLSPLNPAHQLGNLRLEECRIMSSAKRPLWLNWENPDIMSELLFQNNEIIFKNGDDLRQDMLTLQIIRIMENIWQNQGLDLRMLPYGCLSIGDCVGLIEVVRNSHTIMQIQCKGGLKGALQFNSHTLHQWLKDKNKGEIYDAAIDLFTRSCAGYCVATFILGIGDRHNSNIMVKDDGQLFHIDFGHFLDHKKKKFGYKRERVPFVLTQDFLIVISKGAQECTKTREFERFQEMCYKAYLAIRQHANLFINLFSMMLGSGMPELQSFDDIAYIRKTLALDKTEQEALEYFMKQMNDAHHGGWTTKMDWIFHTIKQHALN
T1 sequence (P27986 whole entry partner): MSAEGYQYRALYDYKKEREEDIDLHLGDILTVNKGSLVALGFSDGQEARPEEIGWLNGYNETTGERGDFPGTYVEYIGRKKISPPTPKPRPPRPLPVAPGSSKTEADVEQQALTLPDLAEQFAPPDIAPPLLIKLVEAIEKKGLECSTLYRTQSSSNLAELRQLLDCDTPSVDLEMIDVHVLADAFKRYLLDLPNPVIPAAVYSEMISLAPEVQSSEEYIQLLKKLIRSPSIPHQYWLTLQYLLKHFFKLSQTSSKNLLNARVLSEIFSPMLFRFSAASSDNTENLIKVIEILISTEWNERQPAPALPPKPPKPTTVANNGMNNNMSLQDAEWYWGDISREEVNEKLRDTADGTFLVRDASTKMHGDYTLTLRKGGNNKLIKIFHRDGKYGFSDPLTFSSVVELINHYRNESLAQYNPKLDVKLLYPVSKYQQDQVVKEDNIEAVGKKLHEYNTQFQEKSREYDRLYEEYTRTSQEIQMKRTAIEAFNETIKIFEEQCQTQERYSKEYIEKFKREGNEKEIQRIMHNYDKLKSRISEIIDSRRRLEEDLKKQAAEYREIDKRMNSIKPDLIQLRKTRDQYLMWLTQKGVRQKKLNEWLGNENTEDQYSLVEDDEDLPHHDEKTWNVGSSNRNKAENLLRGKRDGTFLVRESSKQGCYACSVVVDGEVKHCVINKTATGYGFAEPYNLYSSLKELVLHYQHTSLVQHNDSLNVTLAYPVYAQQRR

| Maximum activity relative to 1938 (human p110α/p85α (PI3Kα)) | Maximum activity relative to pY control (human p110α/p85α (PI3Kα)) | Compound | also measured |
| --- | --- | --- | --- |
| 102% |  | COc1cc(N2CCN(C)CC2)ccc1Nc1cc(Nc2cccc3c2N(C(C)=O)CC3)ccn1 [Compound 1889] | EC50 (human p110α/p85α (PI3Kα)): 56 ± 24 µM |
| 4% | 14 ± 13% | CCN1CCN(c2ccc(Nc3cc(Nc4ccncn4)ccn3)cc2)CC1 [Compound 2106] | reduction in activity (human p110α/p85α (PI3Kα)): > 95% |
| 4% | 16 ± 8% | CCN1CCN(c2ccc(Nc3nccc(Nc4cccc5c4N(C(C)=O)CC5)n3)cc2)CC1 [Compound 2152] | reduction in activity (human p110α/p85α (PI3Kα)): > 95% |

Continued, compound first:

| Compound | Maximum activity relative to 1938 (human p110α/p85α (PI3Kα)) | Maximum activity relative to pY control (human p110α/p85α (PI3Kα)) | also measured |
| --- | --- | --- | --- |
| COc1cc(Nc2cc(Nc3cccc4c3N(C(C)=O)CC4)ccn2)cc(OC)c1OC [Compound 1887] | 80% |  | EC50 (human p110α/p85α (PI3Kα)): 36 ± 5 µM |
| CC(=O)N1CCc2cccc(Nc3ccnc(Nc4ccccc4)c3)c21 [Compound 2016] | 9% | 36 ± 8% |  |
| Cc1cc(C(C)Nc2ccccc2)c2nc(N3CCOCC3)cc(=O)n2c1 (stereo not drawn) [TGX-221, reference compound] |  |  | effect on insulin-stimulated pAKT^S473 (PI3Kα-KO MEFs): sensitivity of insulin-stimulated pAKT^S473 |
| PDGF |  |  | PI(3,4)P2 signal by mass spectrometry (MEFs): detected; PIP3 response (A549 cells): no PIP3 induced |
